# From US10508104B2, “6-hydroxy-5-(phenyl/heteroarylsulfonyl)pyrimidin-4(1H)-one as APJ agonists” (Bristol-Myers Squibb Company, priority 2016, dated 2019)
# pEC50: −log10 of the molar value.
# Target: human APJ receptor (Homo sapiens (Human), UniProt P35414)
# Experiment: Intracellular cAMP accumulation assay (APJ hcAMP, HTRF)
# Type: cell-based
# Details: HEK293 cells stably expressing human APJ receptor; inhibition of forskolin-mediated cAMP production; read-out: Human APJ cAMP EC50 Potency range
# Description: Intracellular cAMP Accumulation Assay
# HEK293 cells stably expressing human APJ receptor were used to assess the activity of compounds. Cultured cells were detached and resuspended in the cAMP Homogeneous Time-Resolved Fluorescence (HTRF) assay buffer (Cisbio cat; #62AM4PEJ). The assay was performed in 384-well assay plates (Perkin-Elmer; cat #6008289) according to assay protocol provided by the manufacturer. Serial dilutions of a compound together with assay buffer containing […] and 2 μM forskolin were added to each well containing 5,000 cells and incubated for 30 minutes at room temperature. Subsequently, cAMP D2 reagent was added in the lysis buffer followed by the EuK antibody (Cisbio; cat #62AM4PEJ) and incubated for 60 min. The fluorescence emission ratio was measured using fluorometer. The intracellular cAMP concentrations (compound-stimulated inhibition of forskolin-mediated cAMP production) were calculated by extrapolation from a standard curve using known cAMP concentrations. The EC50 values were obtained by fitting the data to a sigmoidal concentration-response curve with variable slope.
# The EC50 value of each compound is presented at the end of the example description.
# The biological activity of the exemplified compounds of this invention determined by the assay described above is shown at the end of each example.
# Sequence of human APJ receptor (P35414 whole entry): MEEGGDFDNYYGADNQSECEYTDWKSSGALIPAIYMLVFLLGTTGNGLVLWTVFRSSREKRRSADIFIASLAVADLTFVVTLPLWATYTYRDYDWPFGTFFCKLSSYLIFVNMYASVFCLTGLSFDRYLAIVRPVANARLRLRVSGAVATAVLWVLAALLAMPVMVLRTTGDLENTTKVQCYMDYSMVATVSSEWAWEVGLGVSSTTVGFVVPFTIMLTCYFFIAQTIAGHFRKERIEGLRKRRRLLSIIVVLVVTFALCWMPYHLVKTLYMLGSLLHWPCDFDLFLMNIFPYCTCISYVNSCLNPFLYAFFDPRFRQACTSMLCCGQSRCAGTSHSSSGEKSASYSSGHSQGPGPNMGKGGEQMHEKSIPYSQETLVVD
row,SMILES,pEC50
1,"CCCCc1nc(=O)c(S(=O)(=O)c2ccc(-c3cccnc3C)cc2)c(O)n1[C@H]1CCc2c(C#N)cccc21 [Example 539, (1S)-1-{2-butyl-6-hydroxy-5-[4-(2-methylpyridin-3-yl)benzenesulfonyl]-4-oxo-1,4-dihydropyrimidin-1-yl}-2,3-dihydro-1H-indene-4-carbonitrile]",8.00 to 11.00
2,"CCCCc1nc(=O)c(S(=O)(=O)c2ccc(-c3ccccc3C(=O)NC)cc2)c(O)n1[C@@H](CC)c1ccc(C#N)c(F)c1 [Example 520, 4′-({2-butyl-1-[(1S)-1-(4-cyano-3-fluorophenyl)propyl]-6-hydroxy-4-oxo-1,4-dihydropyrimidin-5-yl}sulfonyl)-N-methyl-[1,1′-biphenyl]-2-carboxamide]",8.00 to 11.00
3,"CCCCc1nc(=O)c(S(=O)(=O)c2ccc(-n3cc(Cl)ccc3=O)cc2)c(O)n1-c1c(OC)cccc1OC [Example 71, 2-Butyl-5-((4-(5-chloro-2-oxopyridin-1 (2H)-yl)phenyl)sulfonyl)-1-(2,6-dimethoxyphenyl)-6-hydroxypyrimidin-4(1H)-one]",8.00 to 11.00
4,"CCCCc1nc(=O)c(S(=O)(=O)c2ccc(-c3cccnc3C)cc2)c(O)n1[C@@H](CC)c1ccc(C#N)c(F)c1 [Example 515, 4-[(1S)-1-{2-butyl-6-hydroxy-5-[4-(2-methylpyridin-3-yl)benzenesulfonyl]-4-oxo-1,4-dihydropyrimidin-1-yl}propyl]-2-fluorobenzonitrile]",8.00 to 11.00
5,"CCCCc1nc(=O)c(S(=O)(=O)c2ccc(-c3ccccc3C(=O)N(C)C)cc2)c(O)n1[C@@H](CC)c1ccc(C#N)c(F)c1 [Example 521, 4′-({2-butyl-1-[(1S)-1-(4-cyano-3-fluorophenyl)propyl]-6-hydroxy-4-oxo-1,4-dihydropyrimidin-5-yl}sulfonyl)-N,N-dimethyl-[1,1′-biphenyl]-2-carboxamide]",8.00 to 11.00
6,"CCCCc1nc(=O)c(S(=O)(=O)c2ccc(-c3ccnc(F)c3C)cc2)c(O)n1[C@@H](CC)c1ccccc1F [Example 432, 2-butyl-5-[4-(2-fluoro-3-methylpyridin-4-yl)benzenesulfonyl]-1-[(1S)-1-(2-fluorophenyl)propyl]-6-hydroxy-1,4-dihydropyrimidin-4-one]",8.00 to 11.00
7,"COC[C@@H](c1cccc(C#N)c1)n1c(COC(C)C)nc(=O)c(S(=O)(=O)c2ccc(-c3ccnc(F)c3C)cc2)c1O [Example 395, 3-[(1R)-1-{5-[4-(2-fluoro-3-methylpyridin-4-yl)benzenesulfonyl]-6-hydroxy-4-oxo-2-[(propan-2-yloxy)methyl]-1,4-dihydropyrimidin-1-yl}-2-methoxyethyl]benzonitrile]",8.00 to 11.00
8,"CCCCc1nc(=O)c(S(=O)(=O)c2ccc(-c3ccccc3C(=O)NC)cc2)c(O)n1[C@@H](CC)c1cccc(C#N)n1 [Example 551, 4′-({2-butyl-1-[(1S)-1-(6-cyanopyridin-2-yl)propyl]-6-hydroxy-4-oxo-1,4-dihydropyrimidin-5-yl}sulfonyl)-N-methyl-[1,1′-biphenyl]-2-carboxamide]",8.00 to 11.00
9,"CC[C@@H](c1cccc(C#N)c1)n1c(CC2CC2)nc(=O)c(S(=O)(=O)c2ccc(-c3ccc(F)nc3C)cc2)c1O [Example 444, 3-[(1S)-1-[2-(cyclopropylmethyl)-5-[4-(6-fluoro-2-methylpyridin-3-yl)benzenesulfonyl]-6-hydroxy-4-oxo-1,4-dihydropyrimidin-1-yl]propyl]benzonitrile]",8.00 to 11.00

# Same assay, conditions: human APJ, cAMP accumulation; read-out: Human APJ cAMP EC50 Potency range
row,SMILES,pEC50
1,"COC[C@@H](c1ccccc1)n1c(C2CCCO2)nc(=O)c(S(=O)(=O)c2ccc(-c3ccc(F)nc3)cc2)c1O (mixture of isomers) [Example 354, 5-[4-(6-fluoropyridin-3-yl)benzenesulfonyl]-6-hydroxy-1-[(1R)-2-methoxy-1-phenylethyl]-2-(oxolan-2-yl)-1,4-dihydropyrimidin-4-one]",8.00 to 11.00
2,"CCCCc1nc(=O)c(S(=O)(=O)c2ccc(-c3ccnc(F)c3C)cc2)c(O)n1[C@@H](CC)c1ccc(C#N)cc1 [Example 268, 4-[(1S)-1-{2-butyl-5-[4-(2-fluoro-3-methylpyridin-4-yl)benzenesulfonyl]-6-hydroxy-4-oxo-1,4-dihydropyrimidin-1-yl}propyl]benzonitrile]",8.00 to 11.00
3,"CC[C@@H](c1ccccc1)n1c(C2CCCC2)nc(=O)c(S(=O)(=O)c2ccc(-c3ccncc3C)cc2)c1O [Example 282, 2-cyclopentyl-6-hydroxy-5-[4-(3-methylpyridin-4-yl)benzenesulfonyl]-1-[(1S)-1-phenylpropyl] 1,4-dihydropyrimidin-4-one]",8.00 to 11.00
4,"CCCCCc1nc(=O)c(S(=O)(=O)c2ccc(-c3ccc(F)nc3C)cc2)c(O)n1[C@@H](COC)c1ccccc1 [Example 250, 5-[4-(6-fluoro-2-methylpyridin-3-yl)benzenesulfonyl]-6-hydroxy-1-[(1R)-2-methoxy-1-phenylethyl]-2-pentyl-1,4-dihydropyrimidin-4-one]",8.00 to 11.00
5,"CCCCc1nc(=O)c(S(=O)(=O)c2ccc(-c3cnc(C)nc3)cc2)c(O)n1[C@@H](CC)c1ccccc1 [Example 292, 2-butyl-6-hydroxy-5-[4-(2-methylpyrimidin-5-yl)benzenesulfonyl]-1-[(1S)-1-phenylpropyl]-1,4-dihydropyrimidin-4-one]",7.00 to 8.00
6,"CCCCc1nc(=O)c(S(=O)(=O)c2ccc(-c3ccnc(F)c3C)cc2)c(O)n1[C@H]1CCCc2ccccc21 [Example 243, 2-butyl-5-[4-(2-fluoro-3-methylpyridin-4-yl)benzenesulfonyl]-6-hydroxy-1-[(1S)-1,2,3,4-tetrahydronaphthalen-1-yl]-1,4-dihydropyrimidin-4-one]",8.00 to 11.00

# Same assay, conditions: human APJ, intracellular cAMP accumulation; read-out: Human APJ cAMP EC50 Potency range
row,SMILES,pEC50
1,"COc1cccc(OC)c1-n1c(CCC(C)C)nc(=O)c(S(=O)(=O)c2ccc(-n3ccccc3=O)cc2)c1O [Example 73, 1-(2,6-dimethoxyphenyl)-6-hydroxy-2-(3-methylbutyl)-5-[4-(2-oxo-1,2-dihydropyridin-1-yl)benzenesulfonyl]-1,4-dihydropyrimidin-4-one]",8.00 to 11.00
2,"CCCCc1nc(=O)c(S(=O)(=O)c2ccc(F)cc2)c(O)n1-c1c(OC)cccc1OC [Example 4, 2-butyl-1-(2,6-dimethoxyphenyl)-5-(4-fluorobenzenesulfonyl)-6-hydroxy-1,4-dihydropyrimidin-4-one]",8.00 to 11.00
3,"CCCCc1nc(=O)c(S(=O)(=O)c2ccc(-c3ccc(F)nc3)c(F)c2)c(O)n1-c1c(OC)cccc1OC [Example 70, 2-butyl-1-(2,6-dimethoxyphenyl)-5-[3-fluoro-4-(6-fluoropyridin-3-yl)benzenesulfonyl]-6-hydroxy-1,4-dihydropyrimidin-4-one]",8.00 to 11.00
4,"CCCCc1nc(=O)c(S(=O)(=O)c2ccc(Br)cc2)c(O)n1[C@H](C)c1ccccc1 [Example 127, 5-(4-bromobenzenesulfonyl)-2-butyl-6-hydroxy-1-[(1R)-1-phenylethyl]-1,4-dihydropyrimidin-4-one]",7.00 to 8.00
5,"CC[C@@H](c1ccccc1)n1c(CCC(C)C)nc(=O)c(S(=O)(=O)c2ccc(-c3ccncc3C)cc2)c1O [Example 209, 6-hydroxy-2-(3-methylbutyl)-5-[4-(3-methylpyridin-4-yl)benzenesulfonyl]-1-[(1S)-1-phenylpropyl]-1,4-dihydropyrimidin-4-one]",8.00 to 11.00
6,"CCCCc1nc(=O)c(S(=O)(=O)c2ccc(-c3cncc(F)c3)cc2)c(O)n1[C@@H](C)c1cccc(C#N)c1 [Example 140, 3-[(1S)-1-{2-butyl-5-[4-(5-fluoropyridin-3-yl)benzenesulfonyl]-6-hydroxy-4-oxo-1,4-dihydropyrimidin-1-yl}ethyl]benzonitrile]",8.00 to 11.00
7,"CCCCc1nc(=O)c(S(=O)(=O)c2ccc(-c3cncc(F)c3)cc2)c(O)n1[C@H](C)c1ccccc1 [Example 131, 2-butyl-5-[4-(5-fluoropyridin-3-yl)benzenesulfonyl]-6-hydroxy-1-[(1R)-1-phenylethyl]-1,4-dihydropyrimidin-4-one]",7.00 to 8.00
8,"CCCCc1nc(=O)c(S(=O)(=O)c2ccc(-c3cncc(F)c3)cc2)c(O)n1[C@@H](CC)c1cccc(Cl)c1 [Example 197, 2-butyl-1-[(1S)-1-(3-chlorophenyl)propyl]-5-[4-(5-fluoropyridin-3-yl)benzenesulfonyl]-6-hydroxy-1,4-dihydropyrimidin-4-one]",8.00 to 11.00
9,"CCCc1nc(=O)c(S(=O)(=O)c2ccc(-c3cccnc3C)cc2)c(O)n1[C@@H](COC)c1ccccc1 [Example 173, 6-hydroxy-1-[(1R)-2-methoxy-1-phenylethyl]-5-[4-(2-methylpyridin-3-yl)benzenesulfonyl]-2-propyl-1,4-dihydropyrimidin-4-one]",8.00 to 11.00
10,"COC[C@@H](c1ccccc1)n1c(CC2CC2)nc(=O)c(S(=O)(=O)c2ccc(-c3cccnc3C)cc2)c1O [Example 180, 2-(cyclopropylmethyl)-6-hydroxy-1-[(1R)-2-methoxy-1-phenylethyl]-5-[4-(2-methylpyridin-3-yl)benzenesulfonyl]-1,4-dihydropyrimidin-4-one]",8.00 to 11.00
11,"CCCCc1nc(=O)c(S(=O)(=O)C2CCN(C(=O)C3CC3)CC2)c(O)n1-c1c(OC)cccc1OC [Example 113, 2-butyl-5-[(1-cyclopropanecarbonyl-piperidin-4-yl)sulfonyl]-1-(2,6-dimethoxyphenyl)-6-hydroxy-1,4-dihydropyrimidin-4-one]",8.00 to 11.00
